Measurements published in ChEMBL document CHEMBL4342467, “Discovery of a Novel Dual-Target Inhibitor of ERK1 and ERK5 That Induces Regulated Cell Death to Overcome Compensatory Mechanism in Specific Tumor Types” (J Med Chem, 2020).

How the values were obtained:
MKN-74 = assay: Antiproliferative activity against human MKN74 cells assessed as reduction in cell viability measured after 24 hrs; assay type: functional, cell-based; conditions: MKN-74, 24 h
[1] = target: Mitogen-activated protein kinase 1 (Homo sapiens) (UniProt P28482); assay: Inhibition of ERK2 (unknown origin) at 1 uM by Z'-Lyte assay relative to control
Chain of Mitogen-activated protein kinase 1 (Homo sapiens) (P28482 whole entry): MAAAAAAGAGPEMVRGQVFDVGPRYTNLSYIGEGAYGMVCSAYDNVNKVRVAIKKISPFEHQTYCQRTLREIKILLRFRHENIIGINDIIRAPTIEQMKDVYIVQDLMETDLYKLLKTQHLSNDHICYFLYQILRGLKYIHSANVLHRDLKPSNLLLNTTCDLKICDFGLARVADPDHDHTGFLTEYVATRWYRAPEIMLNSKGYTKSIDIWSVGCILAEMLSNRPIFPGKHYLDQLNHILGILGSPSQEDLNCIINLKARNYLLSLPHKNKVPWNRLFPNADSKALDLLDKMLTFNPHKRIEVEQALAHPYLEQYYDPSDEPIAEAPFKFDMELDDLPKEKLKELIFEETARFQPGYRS

[2] = target: Mitogen-activated protein kinase 7 (Homo sapiens) (UniProt Q13164); assay: Inhibition of ERK5 (unknown origin) at 1 uM by Z'-Lyte assay relative to control
Chain of Mitogen-activated protein kinase 7 (Homo sapiens) (Q13164 2-816 limits assumed): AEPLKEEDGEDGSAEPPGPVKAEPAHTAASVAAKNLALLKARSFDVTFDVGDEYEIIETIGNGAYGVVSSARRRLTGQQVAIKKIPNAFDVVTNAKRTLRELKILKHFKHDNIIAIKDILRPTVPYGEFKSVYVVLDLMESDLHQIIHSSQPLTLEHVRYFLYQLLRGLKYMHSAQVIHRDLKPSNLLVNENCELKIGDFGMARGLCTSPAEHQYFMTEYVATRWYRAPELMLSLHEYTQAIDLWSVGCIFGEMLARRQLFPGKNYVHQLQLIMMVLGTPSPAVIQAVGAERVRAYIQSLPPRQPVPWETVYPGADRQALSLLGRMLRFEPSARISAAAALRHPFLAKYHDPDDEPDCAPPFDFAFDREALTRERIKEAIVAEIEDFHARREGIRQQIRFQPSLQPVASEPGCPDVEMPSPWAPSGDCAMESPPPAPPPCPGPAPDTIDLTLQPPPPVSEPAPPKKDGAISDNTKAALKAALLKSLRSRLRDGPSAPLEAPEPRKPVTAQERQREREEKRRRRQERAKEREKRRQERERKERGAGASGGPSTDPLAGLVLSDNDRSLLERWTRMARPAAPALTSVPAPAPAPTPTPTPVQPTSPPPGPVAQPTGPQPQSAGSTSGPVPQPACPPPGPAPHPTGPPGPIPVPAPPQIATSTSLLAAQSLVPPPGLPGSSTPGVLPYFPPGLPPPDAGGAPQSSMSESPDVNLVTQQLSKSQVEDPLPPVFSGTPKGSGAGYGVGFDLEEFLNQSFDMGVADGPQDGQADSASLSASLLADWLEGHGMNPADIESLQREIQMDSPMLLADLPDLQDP

HL-60 = assay: Antiproliferative activity against human HL60 cells assessed as reduction in cell viability measured after 24 hrs; assay type: functional, cell-based; conditions: HL-60, 24 h
[3] = target: Mitogen-activated protein kinase 3 (Homo sapiens) (UniProt P27361); assay: Inhibition of ERK1 (unknown origin) at 1 uM by Z'-Lyte assay relative to control
Chain of Mitogen-activated protein kinase 3 (Homo sapiens) (P27361 whole entry): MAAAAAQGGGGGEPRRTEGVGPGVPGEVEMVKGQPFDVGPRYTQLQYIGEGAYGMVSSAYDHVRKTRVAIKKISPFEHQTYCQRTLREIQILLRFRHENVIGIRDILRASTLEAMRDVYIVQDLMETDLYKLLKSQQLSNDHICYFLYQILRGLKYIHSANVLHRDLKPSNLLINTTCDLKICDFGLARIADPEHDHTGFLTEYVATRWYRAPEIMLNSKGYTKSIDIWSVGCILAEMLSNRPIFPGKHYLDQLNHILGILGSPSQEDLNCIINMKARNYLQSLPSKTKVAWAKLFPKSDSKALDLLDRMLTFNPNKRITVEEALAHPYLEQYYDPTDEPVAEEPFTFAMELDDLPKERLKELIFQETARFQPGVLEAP

HeLa = assay: Antiproliferative activity against human HeLa cells assessed as reduction in cell viability measured after 24 hrs; assay type: functional, cell-based

| Compound | IC50 (MKN-74) | inhibition [1] | inhibition [2] | IC50 (HL-60) | inhibition [3] | IC50 (HeLa) |
| --- | --- | --- | --- | --- | --- | --- |
| NC(=O)c1c(NC(=O)c2ccccc2)sc2c1CCN(C(=S)Nc1ccccc1)C2 | > 50 µM | 66.3% | 61.4% | > 50 µM | 65.8% | > 50 µM |
| NC(=O)c1c(NC(=O)c2cccc([N+](=O)[O-])c2)sc2c1CCN(C(=S)Nc1cc(C(F)(F)F)cc(C(F)(F)F)c1)C2 | 25.8 µM | 75% | 82.9% | 16.4 µM | 80.2% | 27.2 µM |
| NC(=O)c1c(NC(=O)c2ccccc2I)sc2c1CCN(C(=S)Nc1ccccc1C(F)(F)F)C2 | 14.2 µM | 80.7% | 64.8% | 19.7 µM | 77.5% | 49.2 µM |
| NC(=O)c1c(NC(=O)c2ccccc2Cl)sc2c1CCN(C(=S)Nc1cccc3ccccc13)C2 | 20.7 µM | 81.3% | 72.5% | 13.4 µM | 82.8% | 30.8 µM |
| NC(=O)c1c(NC(=O)c2ccccc2C(F)(F)F)sc2c1CCN(C(=S)Nc1ccccc1Br)C2 | 23.9 µM | 85.5% | 73.3% | 25.5 µM | 82.5% | > 50 µM |
| NC(=O)c1c(NC(=O)c2ccc(C(F)(F)F)cc2)sc2c1CCN(C(=S)Nc1ccccc1Cl)C2 | 16.4 µM | 79% | 57.5% | 36.1 µM | 75.6% | 44 µM |
| NC(=O)c1c(NC(=O)c2ccccc2Br)sc2c1CCN(C(=S)Nc1ccccc1C(F)(F)F)C2 | 24.3 µM | 72.1% | 78.6% | 27.4 µM | 79.3% | 39.6 µM |
| NC(=O)c1c(NC(=O)c2ccccc2Cl)sc2c1CCN(Cc1cc(Cl)cc(Cl)c1)C2 | 23.7 µM | 59.9% | 22.9% | 15.8 µM | 61% | 19.6 µM |
| Cc1ccc(C(=O)Nc2sc3c(c2C(N)=O)CCN(C(=S)Nc2cc(C(F)(F)F)cc(C(F)(F)F)c2)C3)cc1 | 14.9 µM | 80.1% | 70.8% | 11.8 µM | 77.4% | 17.1 µM |
| COc1ccccc1C(=O)Nc1sc2c(c1C(N)=O)CCN(C(=S)Nc1ccccc1Cl)C2 | 20.5 µM | 67.1% | 53.5% | 20.8 µM | 66.3% | > 50 µM |
| NC(=O)c1c(NC(=O)c2ccncn2)sc2c1CCN(C(=S)Nc1ccccc1Cl)C2 | 28.4 µM | 45.7% | 38.5% | 34.6 µM | 48.5% | > 50 µM |
| NC(=O)c1c(NC(=O)c2ccccc2Cl)sc2c1CCN(Cc1ccccc1)C2 | 14.5 µM | 62.9% | 63.7% | 12 µM | 60.1% | 38.4 µM |
| NC(=O)c1c(NC(=O)c2ccccc2Cl)sc2c1CCN(C(=O)Nc1c(Cl)cccc1Cl)C2 | 24.4 µM | 85% | 82.7% | 17.7 µM | 82.7% | 27.2 µM |
| NC(=O)c1c(NC(=O)c2ccc(C(F)(F)F)cc2)sc2c1CCN(Cc1ccc(Cl)cc1)C2 | > 50 µM | 43.3% | 61.1% | > 50 µM | 47.8% | > 50 µM |
| NC(=O)c1c(NC(=O)c2ccccc2Cl)sc2c1CCNC2 | 28.7 µM | 64.9% | 62.7% | 18.6 µM | 61.5% | 45 µM |
| Cc1ccccc1NC(=S)N1CCc2c(sc(NC(=O)c3ccccc3C(F)(F)F)c2C(N)=O)C1 | 47.4 µM | 62.8% | 48.3% | 25.1 µM | 64.9% | 47 µM |
| NC(=O)c1c(NC(=O)c2ccccc2I)sc2c1CCN(C(=S)Nc1ccccc1Cl)C2 | 17.5 µM | 85.8% | 80.4% | 8.56 µM | 83.5% | > 50 µM |
| COc1ccc(NC(=S)N2CCc3c(sc(NC(=O)c4ccccc4Cl)c3C(N)=O)C2)cc1 | 19.6 µM | 68.7% | 55.7% | 15.7 µM | 78.1% | 36.4 µM |
| NC(=O)c1c(NC(=O)c2cccc([N+](=O)[O-])c2)sc2c1CCN(Cc1ccc(Cl)cc1Cl)C2 | 16.5 µM | 65.3% | 77.9% | 19.8 µM | 67.2% | 33 µM |
| Cc1ccccc1NC(=S)N1CCc2c(sc(NC(=O)c3ccccc3C)c2C(N)=O)C1 | > 50 µM | 43% | 37.1% | > 50 µM | 48.3% | > 50 µM |
| NC(=O)c1c(NC(=O)c2ccccc2C(F)(F)F)sc2c1CCN(C(=S)Nc1ccccc1Cl)C2 | 21.9 µM | 80.9% | 56.5% | 17.6 µM | 78.8% | 46.9 µM |
| CSc1ccccc1NC(=S)N1CCc2c(sc(NC(=O)c3ccccc3Cl)c2C(N)=O)C1 | 13.8 µM | 64.6% | 52.6% | 14.6 µM | 69.5% | 43.6 µM |
| COc1ccccc1NC(=S)N1CCc2c(sc(NC(=O)c3ccccc3OC)c2C(N)=O)C1 | > 50 µM | 48.7% | 32% | > 50 µM | 44.7% | > 50 µM |
| NC(=O)c1c(NC(=O)c2ccccc2Cl)sc2c1CCN(C(=S)Nc1ccccc1)C2 | 15.6 µM | 76.5% | 59.5% | 5.94 µM | 85.4% | 46.7 µM |
| COc1ccccc1NC(=S)N1CCc2c(sc(NC(=O)c3ccccc3C(F)(F)F)c2C(N)=O)C1 | 34.5 µM | 74.9% | 61.7% | > 50 µM | 77.6% | > 50 µM |
| COc1ccccc1NC(=S)N1CCc2c(sc(NC(=O)c3ccccc3Cl)c2C(N)=O)C1 | 35.2 µM | 70.6% | 53.7% | 40.9 µM | 71.3% | > 50 µM |

The remaining compounds from weak to strong by IC50 (MKN-74), led by results:

| IC50 (MKN-74) | inhibition [1] | inhibition [2] | IC50 (HL-60) | inhibition [3] | IC50 (HeLa) | Compound |
| --- | --- | --- | --- | --- | --- | --- |
| 13.7 µM | 82.1% | 88.4% | 17.6 µM | 80.9% | 24.7 µM | NC(=O)c1c(NC(=O)c2ccccc2Br)sc2c1CCN(C(=S)Nc1ccccc1Br)C2 |
| 13.3 µM | 68.6% | 77.3% | 17.9 µM | 76.6% | 28 µM | NC(=O)c1c(NC(=O)c2ccccc2F)sc2c1CCN(C(=S)Nc1cc(C(F)(F)F)cc(C(F)(F)F)c1)C2 |
| 12.9 µM | 71.6% | 37.9% | 21.8 µM | 68.3% | > 50 µM | NC(=O)c1c(NC(=O)c2ccccc2Cl)sc2c1CCN(Cc1ccccc1F)C2 |
| 12.6 µM | 82.8% | 70.7% | 4.97 µM | 88.4% | 28.7 µM | NC(=O)c1c(NC(=O)c2ccccc2Cl)sc2c1CCN(C(=S)Nc1ccccc1F)C2 |
| 12.3 µM | 45.4% | 46% | 10 µM | 42.8% | 47.4 µM | Cc1ccc(C(=O)Nc2sc3c(c2C(N)=O)CCN(Cc2c(Cl)cccc2Cl)C3)cc1 |
| 11.1 µM | 68.6% | 65.2% | 12.5 µM | 62.4% | 19.4 µM | NC(=O)c1c(NC(=O)c2ccccc2F)sc2c1CCN(C(=S)Nc1ccccc1Cl)C2 |
| 11 µM | 65.9% | 53% | 20.9 µM | 70.6% | 35.3 µM | Cc1ccccc1C(=O)Nc1sc2c(c1C(N)=O)CCN(C(=S)Nc1ccccc1Cl)C2 |
| 8.85 µM | 58.5% | 70.7% | 7.04 µM | 64.2% | 40.3 µM | NC(=O)c1c(NC(=O)c2cccc([N+](=O)[O-])c2)sc2c1CCN(C(=S)Nc1ccccc1Cl)C2 |
| 7.43 µM | 36.9% | 21.1% | 10.3 µM | 48.4% | 33 µM | NC(=O)c1c(NC(=O)c2ccccc2F)sc2c1CCN(Cc1c(Cl)cccc1Cl)C2 |
| 7.09 µM | 54.4% | 57.4% | 7.59 µM | 80.5% | > 50 µM | NC(=O)c1c(NC(=O)c2ccccc2Cl)sc2c1CCN(C(=S)Nc1ccc(C(F)(F)F)cc1)C2 |
| 4.43 µM | 65.2% | 65.1% | 2.9 µM | 61.4% | 27.5 µM | NC(=O)c1c(NC(=O)c2ccccc2Cl)sc2c1CCN(Cc1ccccc1Cl)C2 |
| 4.02 µM | 90.5% | 88% | 3.95 µM | 90.7% | 26.5 µM | NC(=O)c1c(NC(=O)c2ccccc2Cl)sc2c1CCN(C(=S)Nc1c(Cl)cccc1Cl)C2 |
| 2.63 µM | 87.3% | 81% | 4.43 µM | 88% | 28.9 µM | NC(=O)c1c(NC(=O)c2ccccc2Cl)sc2c1CCN(C(=S)Nc1ccccc1I)C2 |
| 1.87 µM | 85.7% | 76.6% | 10.6 µM | 83.6% | 26.7 µM | NC(=O)c1c(NC(=O)c2ccccc2Cl)sc2c1CCN(C(=S)Nc1ccccc1C(F)(F)F)C2 |
